Assay results taken from PubChem BioAssay (NCI).
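All cell lines were grown in 96-well plates and treated with compound for 48 hours. Here, GI50 denotes the concentration required for 50% inhibition of growth. TGI is the concentration that stops growth completely.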

How the values were obtained:
Test in all cases: NCI anticancer screen, dose series, 48 h
COLO 205 colon = test system: COLO 205 colon
KM20L2 colon = test system: KM20L2 colon
NCI-H23 lung = test system: NCI-H23 lung
RXF 393 renal = test system: RXF 393 renal
SF-268 CNS = test system: SF-268 CNS
SF-539 CNS = test system: SF-539 CNS
TK-10 renal = test system: TK-10 renal
UACC-257 melanoma = test system: UACC-257 melanoma
UACC-62 melanoma = test system: UACC-62 melanoma
MALME-3M melanoma = test system: MALME-3M melanoma

| Compound | TGI (COLO 205 colon) [µM] | TGI (KM20L2 colon) [µM] | TGI (NCI-H23 lung) [µM] | TGI (RXF 393 renal) [µM] | TGI (SF-268 CNS) [µM] | TGI (SF-539 CNS) [µM] | TGI (TK-10 renal) [µM] | TGI (UACC-257 melanoma) [µM] | TGI (UACC-62 melanoma) [µM] | GI50 (COLO 205 colon) [µM] | GI50 (MALME-3M melanoma) [µM] | TGI (MALME-3M melanoma) [µM] | GI50 (NCI-H23 lung) [µM] | GI50 (RXF 393 renal) [µM] | GI50 (SF-268 CNS) [µM] | GI50 (SF-539 CNS) [µM] | GI50 (TK-10 renal) [µM] | GI50 (UACC-257 melanoma) [µM] | GI50 (UACC-62 melanoma) [µM] |
| --- | --- | --- | --- | --- | --- | --- | --- | --- | --- | --- | --- | --- | --- | --- | --- | --- | --- | --- | --- |
| Cc1cc(=O)[nH]c(NN2C(Cl)C(=O)C2c2c(O)ccc3ccccc23)n1 (centres undefined) | 58.2 | 66.8 | 39.7 | 26.6 | > 100 | 41.1 | > 100 | > 100 | 47.4 |  |  |  |  |  |  |  |  |  |  |
| c1ccc(C2=NN[C@H](c3cn(-c4ccccc4)nc3-c3ccccc3)C2)cc1 | > 100 |  | > 100 | 9.85 | > 100 | > 100 | 7.74 | > 100 | > 100 | 6.55 | 8.98 | > 100 | 7.21 | 2.58 | 5.98 | 9.11 | 2.82 | > 100 | 6.61 |
| Cc1n(CC(C)C)c2c([n+]1CC(=O)c1ccc([N+](=O)[O-])cc1)C(=O)c1ccccc1C2=O | < 0.01 | 0.113 | < 0.0142 |  | < 0.0391 | < 0.0387 |  | 0.0293 | 0.104 |  |  | < 0.0205 |  |  |  |  |  |  |  |
| C=CCCCCn1c2ccccc2c2c(C)c3c[n+](C)ccc3c(C)c21 | 1.08 | 2.31 |  | 2.11 | 1.56 | 1.83 | 6.89 | 1.47 | 1.28 |  |  | 1.16 |  |  |  |  |  |  |  |
